Data as given in patent US11752193B2, “Administering methylation-controlled J protein (MCJ) SIRNA to a kidney cell” (University of Vermont and State Agricultural College, priority 2012, dated 2023).

Test system: MCF7/siMCJ cells
Experiment: Intracellular ATP levels in MCF7/siMCJ cells after incubation with rotenone
Type: cell-based, human
Conditions: rotenone 10 μM, 4 h, versus medium (FIG. 3B)
Method: CD8 T cells and CD4 T cells were purified from spleen and lymph nodes by negative selection as previously described (Auphan et al., 1998 J Immunol 160, 4810-4821; Conze et al., 2002 J Exp Med 195, 811-823), and by positive selection using the MACS system as recommended by the manufacturer (Miltenyi Biotec, Cambridge, Mass.). Purified T cells were stimulated with plate-bound anti-CD3 (2C11) (5 μg/ml) and soluble anti-CD28 (1 μg/ml) (BD Biosciences, Sparks, Md.) mAbs. Proliferation assays were performed using purified CD8 T cells (10^5 cells/well) activated with anti-CD3 and anti-CD28 and labeled with [^3H]-thymidine as previously described (Conze et al., 2002 J Exp Med 195, 811-823). MCF7, MCF7/siMCJ, and 293T cell lines were maintained as previously described (Hatle et al., 2007 Mol Cell Biol 27, 2952-2966). Rotenone (used at 10 μM) was purchased from Sigma Aldrich (St. Louis, Mo.). Transfection of 293T cells by calcium phosphate was performed as previously described (Hatle et al., 2007 Mol Cell Biol 27, 2952-2966).
The levels of intracellular ATP were determined using […] cells (CD8 T cells, MCF7 cells, 293T cells) per sample and the ATPlite® Luminescence ATP Detection Assay System (PerkinElmer®, Waltham, Mass.) following the recommendations from the manufacturer and a TD-20/20 luminometer (Turner Biosystems, Promega®, Madison, Wis.). […]

For `C=C(C)[C@H]1Cc2c(ccc3c2O[C@@H]2COc4cc(OC)c(OC)cc4[C@@H]2C3=O)O1` [rotenone, Rotenone], the “levels of ATP” value was “abrogated the levels of ATP”.
